The target of test [1] is T1, human PPARδ LBD (aa 171–441) (Homo sapiens, UniProt Q03181).
T1 construct: human PPARδ (aa 171–441); [His]6 (N); made in house; host or cells: E. coli BL21 Codon Plus (DE3)-RIL (plasmid from William Hunter, University of Dundee)
T1 sequence (Q03181 171-441): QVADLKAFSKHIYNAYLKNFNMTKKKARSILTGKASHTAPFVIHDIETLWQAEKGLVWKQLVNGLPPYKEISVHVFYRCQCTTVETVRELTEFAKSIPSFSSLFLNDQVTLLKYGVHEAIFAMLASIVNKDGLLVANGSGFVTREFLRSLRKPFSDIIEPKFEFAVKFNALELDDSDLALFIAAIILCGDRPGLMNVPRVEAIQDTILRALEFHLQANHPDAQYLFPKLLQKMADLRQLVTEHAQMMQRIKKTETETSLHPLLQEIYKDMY
Kind of test: cis-parinaric acid fluorescence displacement assay with PPARδ LBD. The conditions noted are these: cis-parinaric acid (2 μM) displacement, LBD 1 μM; nd = no binding detected; read-out: Ki, PPARδLBD. How it is done: (§1) Proteins were resolved using a step gradient of 0–300 mM imidazole in buffer A (50 mM Tris-HCl, pH 8.0; 500 mM NaCl; 0.5 mM ethylenediaminetetraacetic acid (EDTA); 1 mM dithiothreitol (DTT); 5% (v/v) glycerol) at a flow rate of 5 mL/min (4 column volumes (CVs) washout unbound sample; 0%–30% imidazole over 5 CVs; hold 30% for 2 CVs; 30%–100% imidazole over 5 CVs; hold 100% for 3 CVs).

In test [2] the target is T2, human PPARγ LBD (aa 193–475) (Homo sapiens, UniProt P37231).
T2 construct: human PPARγ (aa 193–475); [His]6 (N); made in house; host or cells: E. coli BL21 Codon Plus (DE3)-RIL (plasmid from Krister Bamberg, Astra-Zeneca)
T2 sequence (P37231 193-475 isoform P37231-2): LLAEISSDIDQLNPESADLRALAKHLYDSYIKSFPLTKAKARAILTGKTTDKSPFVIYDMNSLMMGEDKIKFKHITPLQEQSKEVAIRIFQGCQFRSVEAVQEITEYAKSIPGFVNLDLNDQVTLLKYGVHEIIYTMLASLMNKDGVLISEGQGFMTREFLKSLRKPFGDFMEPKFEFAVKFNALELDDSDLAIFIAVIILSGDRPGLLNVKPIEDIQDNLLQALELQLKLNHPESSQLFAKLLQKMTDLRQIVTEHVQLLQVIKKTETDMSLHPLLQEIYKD
Kind of test: cis-parinaric acid fluorescence displacement assay with PPARγ LBD. The test is classed as binding. How it is done:
as §1

The target in test [3] is T3, human PPARα LBD (aa 196–468) (Homo sapiens, UniProt Q07869).
T3 construct: LBD of human PPARα (aa 196–468); [His]6 (N); made in house; host or cells: E. coli BL21 Codon Plus (DE3)-RIL (plasmid from Krister Bamberg, Astra-Zeneca)
T3 sequence (Q07869 196-468): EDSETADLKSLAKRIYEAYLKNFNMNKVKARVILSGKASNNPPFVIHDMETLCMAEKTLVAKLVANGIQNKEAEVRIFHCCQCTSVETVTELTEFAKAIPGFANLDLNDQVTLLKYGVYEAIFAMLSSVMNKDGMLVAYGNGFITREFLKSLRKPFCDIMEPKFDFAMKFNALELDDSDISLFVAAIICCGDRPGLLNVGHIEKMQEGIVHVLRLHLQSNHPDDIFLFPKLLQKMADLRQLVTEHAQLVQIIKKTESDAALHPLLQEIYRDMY
Kind of test: cis-parinaric acid fluorescence displacement assay with PPARα LBD. The conditions noted are these: cis-parinaric acid (2 μM) displacement, LBD 1 μM; nd = no binding detected; read-out: Ki, PPARαLBD. How it is done: as §1

Test [4] addresses T4, human L-FABP (Homo sapiens, UniProt P07148).
T4 sequence (P07148 1-127): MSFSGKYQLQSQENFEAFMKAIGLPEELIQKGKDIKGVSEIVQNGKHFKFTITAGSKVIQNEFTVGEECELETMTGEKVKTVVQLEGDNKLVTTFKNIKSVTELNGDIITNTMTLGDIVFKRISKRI
Kind of test: ANS fluorescence displacement assay with L-FABP.

In the next test the target is T5, PPARαLBD (Homo sapiens, UniProt Q07869).
T5 construct: LBD of human PPARα (aa 196–468); [His]6 (N); made in house; host or cells: E. coli BL21 Codon Plus (DE3)-RIL (plasmid from Krister Bamberg, Astra-Zeneca)
T5 sequence (Q07869 196-468): T3 sequence (Q07869 196-468)
Nature of the test: PPARαLBD protection from limited proteolysis (western blot). Conditions: PPARαLBD 30 μM, drug 0, 1, 5 μM, trypsin 30 min at 20°C. The text has this:
[…] […] The reaction was quenched by the addition of PMSF and one volume of SDS-PAGE sample buffer as detailed above. Samples were resolved by 15% resolving SDS-PAGE polyacrylamide gels then transferred to a PVDF membrane and probed with anti-human PPARα antibody (mapping to C-terminal aa 420–468 of the PPARαLBD; cat. no. sc1982 Santa-Cruz Biotechnology, Santa Cruz, CA, USA) by western blotting.
(In general: Immunoblotting shows a protein as a band on a membrane.)

For test [5], the target named is T4, human L-FABP. Kind of test: Limited proteolysis of L-FABP with trypsin. Further details: [His]6 (N); made in house; host or cells: E. coli BL21 Codon Plus (DE3)-RIL. Conditions: drug 0-5 μM, L-FABP 50 μM, 1 hr at 20°C. How it is done:
The limited proteolysis of L-FABP (50 μM) with sequencing grade trypsin was carried out in buffer D (20 mM Tris-HCl, pH 8.0; 50 mM NaCl; […]. Apo- or holo-drug (0, 0.1, 0.4, 1.0, 5 μM final drug concentration) protein samples were equilibrated with the drug at 20°C for 15 min before protease was added. Digestion reactions were stopped by the addition of 5 μL of 50 mM phenylmethanesulfonyl fluoride (PMSF) followed by one volume of SDS-PAGE sample buffer (12.5% 0.5 M Tris-HCl pH 6.8; 0.005% bromophenol blue; 10% SDS; 10% glycerol; 2% β-mercaptoethanol) and heated for 2 min at 100°C. Samples were resolved on 4% stacking, 20% resolving polyacrylamide gels at 4°C at a constant voltage of 80 V, using the Laemmli buffer system. Gels were stained with Coomassie Blue G-250 and destained with 50% methanol/10% acetic acid (v/v) solution. Gels were dried between cellulose sheets and scanned at 1200 dpi. Protein bands were quantified densitometrically using LabImage 1D gel analysis software V3.4 (Kapelan GmbH, http://www.kapelan-bioimaging.com/).

Test [6] deals with T4, human L-FABP. Kind of test: Differential scanning calorimetry of L-FABP. Further details: [His]6 (N); made in house; host or cells: E. coli BL21 Codon Plus (DE3)-RIL. The conditions noted are these: holo-drug L-FABP; apo L-FABP Tm = 80.1; scan rate 0.5°C/min. The procedure:
DSC measurements were performed on N-DSC II calorimeter (Calorimetry Sciences Corporation, UT, USA) at a heating rate of 0.5°C/min. For preparation of 250 μM protein sample solutions, L-FABP was extensively buffer exchanged into buffer E (20 mM Tris-HCl pH 8.0) by ultrafiltration using Amicon Ultra 3 K centrifugal concentrators and degassed prior to filling the calorimeter cells. The filtrate from the sample preparation was used as a reference buffer for the DSC measurements. The thermal transition mid-point temperatures (T m) were calculated using CpCalc software (Calorimetry Sciences Corporation, UT, USA).
On the technique in general: Differential scanning calorimetry records heat flow against a reference as temperature is scanned.

For test [7], the target named is T4, human L-FABP. Kind of test: cis-parinaric acid fluorescence displacement assay with L-FABP. Conditions: for displacement of cis-parinaric acid fluorescence from L-FABP: extent of probe displacement by drug titration.
For test [8], the target named is T4, human L-FABP. Kind of test: Fluorescent binding cavity probe binding to L-FABP.
Where [9] appears, read: cis-parinaric acid (2 μM) displacement, LBD 1 μM, nd = no binding detected, read-out: Ki, PPARγLBD.

As usually defined, the Ki is a dissociation constant, usually derived from enzyme kinetics or from competition with a known ligand. One may read the Kd as the equilibrium constant for the complex coming apart.

Where two headings read alike, the source gives them in different places.

Regarding `CCCCCCCC/C=C\CCCCCCCC(=O)O` [Oleate], the Ki was 1100 ± 260 nM in [1], 600 ± 15 nM in test [2] and 210 ± 80 nM in [3].

Regarding `CN(CCOc1ccc(CC2SC(=O)NC2=O)cc1)c1ccccn1` (centres unmarked) [Rosiglitazone], the Ki on human L-FABP [4] was found to be 2800 ± 1100 nM.

For `Cc1nc(-c2ccc(C(F)(F)F)cc2)sc1C(=O)NCc1ccc(OC(C)(C)C(=O)O)cc1` [GW590735], the Ki in test [1] is 23000 ± 4000 nM; in test [2] (setting [9]), 4400 ± 2300 nM; at human L-FABP [4], 20000 ± 3800 nM.

Molecule `CN(CCOc1ccc(C[C@H](Nc2ccccc2C(=O)c2ccccc2)C(=O)O)cc1)c1ccccn1` [GW1929] registered a Ki on human L-FABP [4] of 1600 ± 700 nM.

At human L-FABP [4], `Cc1c(C)c2c(c(C)c1O)CCC(C)(COc1ccc(CC3SC(=O)NC3=O)cc1)O2` (centres unmarked) [Troglitazone] had a Ki of 1700 ± 500 nM.

Consider `CC(C)(Oc1ccc(C(=O)c2ccc(Cl)cc2)cc1)C(=O)O` [Fenofibric acid], for which the Ki in test [1] stood at 49000 ± 4000 nM; on human L-FABP [4], 1000 ± 200 nM; in test [3] it was 10000 ± 3000 nM.

`CC(C)(Sc1ccc(CCN(CCCCC2CCCCC2)C(=O)NC2CCCCC2)cc1)C(=O)O` [GW7647]: the “protection of PPARαLBD from limited proteolysis” value at PPARαLBD is “afforded protection to the PPARαLBD against proteolysis”. Also, the “protection of L-FABP from limited proteolysis” value on human L-FABP [5] is listed as “afforded more resistance to proteolysis”. In addition, the “thermal transition mid-point temperature (Tm) of L-FABP in complex with drug” value at human L-FABP [6] was found to be 86.7 °C. On human L-FABP [7], the Ki was 550 nM and the “displacement of cis-parinaric acid fluorescence from L-FABP” value was “could not completely displace the cis-parinaric acid fluorescence”. At human L-FABP [4], this molecule yielded a Ki of 320 ± 130 nM.

As to `CCCc1c(OCCCOc2ccc(OCC(=O)O)cc2)ccc(C(C)=O)c1O` [L-165,041], the “protection of L-FABP from limited proteolysis” value on human L-FABP [5] was “protects L-FABP from limited proteolysis”. For the same molecule, the Ki was 800 ± 300 nM in test [1]; 2300 nM at human L-FABP [7]; 12000 ± 2100 nM in test [2] (setting [9]); 1400 ± 600 nM on human L-FABP [4]; 4200 ± 400 nM in test [3]. The “displacement of cis-parinaric acid fluorescence from L-FABP” value at human L-FABP [7] is given as “could not completely displace the cis-parinaric acid fluorescence”.

As for `O=S(=O)(O)c1cccc2cccc(Nc3ccccc3)c12`, binding on human L-FABP [8] was characterised by a dissociation constant (Kd) of 6000 ± 2600 nM.

These data come from PMC3588188, “Interactions between Human Liver Fatty Acid Binding Protein and Peroxisome Proliferator Activated Receptor Selective Drugs” (PPAR Research, 2013).
